Patent US8557839B2, “Fused ring azadecalin glucocorticoid receptor modulators” (Corcept Therapeutics, Inc., priority 2004, dated 2013)

How the values were obtained:
glucocorticoid receptors [1] = molecular target: T1, glucocorticoid receptors (Homo sapiens, UniProt P04150); assay: Glucocorticoid receptor binding displacement assay with 3H-dexamethasone; parameters: This GR was a full-length steroid hormone receptor; host or cells: recombinant baculovirus-infected insect cells
T1 sequence (P04150 1-777): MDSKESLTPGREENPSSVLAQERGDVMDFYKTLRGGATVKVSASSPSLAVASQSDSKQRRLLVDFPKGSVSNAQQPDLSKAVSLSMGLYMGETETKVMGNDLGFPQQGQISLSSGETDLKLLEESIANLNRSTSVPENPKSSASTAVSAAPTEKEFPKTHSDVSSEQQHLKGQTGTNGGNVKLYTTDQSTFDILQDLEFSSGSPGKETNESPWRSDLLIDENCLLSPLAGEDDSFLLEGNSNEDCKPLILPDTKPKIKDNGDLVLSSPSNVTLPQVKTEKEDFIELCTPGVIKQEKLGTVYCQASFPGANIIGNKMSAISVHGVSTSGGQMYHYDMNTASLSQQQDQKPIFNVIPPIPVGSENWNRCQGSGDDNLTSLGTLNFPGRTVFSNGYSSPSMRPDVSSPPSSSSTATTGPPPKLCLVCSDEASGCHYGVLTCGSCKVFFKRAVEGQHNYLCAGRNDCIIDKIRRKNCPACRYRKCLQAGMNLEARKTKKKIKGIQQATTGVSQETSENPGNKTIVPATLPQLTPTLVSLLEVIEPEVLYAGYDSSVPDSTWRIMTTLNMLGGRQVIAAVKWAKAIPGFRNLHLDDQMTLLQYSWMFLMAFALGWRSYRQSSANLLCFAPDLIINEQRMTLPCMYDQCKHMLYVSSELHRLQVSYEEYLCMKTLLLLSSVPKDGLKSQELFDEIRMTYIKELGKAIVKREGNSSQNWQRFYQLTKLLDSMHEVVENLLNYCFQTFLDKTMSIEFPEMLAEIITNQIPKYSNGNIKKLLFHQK
Protocol: The source of the receptor was recombinant baculovirus-infected insect cells. This GR was a full-length steroid hormone receptor likely to be associated with heat-shock and other endogenous proteins.
For the Primary Screen, test compounds were tested at 1 μM in duplicate. These compounds were diluted from 10 mM stock in 100% DMSO. After dilution to 100 μM, 5 μl were added to 245 μl assay buffer to obtained 2 μM compound and 2% DMSO.
For the IC50 determinations, test compounds were tested at 6 concentrations in duplicate (concentration range depends on % inhibition binding that was obtained in the Primary Screen). Test compounds were diluted from 10 mM stock in 100% DMSO. The tested solutions were prepared at 2× final assay concentration in 2% DMSO/assay buffer.
All reagents and the assay plate were kept on ice during the addition of reagents. […] After the additions, the incubation mixture was mixed and incubated for 2.5 hrs at 4° C.
After 2.5 hrs incubation, unbound counts were removed with dextran coated charcoal (DCC) as follows: 25 μl of DCC solution (10% DCC in assay buffer) was added to all wells and mixed (total volume 225 μl). The plate was centrifuged at 4000 rpm for 10 minutes at 4° C. 75 μl of the supernatants (i.e.⅓ of total volume) was carefully pipetted into an optiplate. 200 μl of scintillation cocktail were added (Microscint-40, Packard Bioscience. B.V.). The plate was vigorously shaken for approx. 10 minutes and counted on Topcount.
The IC50 values were converted to Ki (the inhibition constant) using the Cheng-Prusoff equation.
Reagents: Assay buffer: 10 mM potassium phosphate buffer pH 7.6 containing 5 mM DTT, 10 mM sodium molybdate, 100 μM EDTA and 0.1% BSA.

glucocorticoid receptors [2] = molecular target: T1, glucocorticoid receptors; assay: GR functional assay using SW1353/MMTV-5 cells (dexamethasone-induced luciferase); type: cell-based; parameters: contains endogenous glucocorticoid receptors; endogenous in cells; host or cells: SW1353/MMTV-5 (human chondrosarcoma, stably carrying the pMAMneo-Luc reporter)
Protocol: SW1353/MMTV-5 is an adherent human chondrosarcoma cell line that contains endogenous glucocorticoid receptors. It was transfected with a plasmid (pMAMneo-Luc) encoding firefly luciferase located behind a glucocorticoid-responsive element (GRE) derived from a viral promoter (long terminal repeat of mouse mammary tumor virus). A stable cell line SW1353/MMTV-5 was selected with geneticin, which was required to maintain this plasmid.
SW1353/MMTV-5 cells were distributed in 96-well plates and incubated in medium (without geneticin) for 24 hrs (in the absence of CO2).

[3] = Ki from IC50 by Cheng-Prusoff, 2.5 nM 3H-dexamethasone, read-out: GR Binding

Row | SMILES | Ki (glucocorticoid receptors [1]; [3]) | Ki (glucocorticoid receptors [2]; read-out: GR Functional) | Ki (glucocorticoid receptors [1]) | Ki (glucocorticoid receptors [2])
1 | CC(C)(C)c1ccc(S(=O)(=O)N2CCC3=Cc4c(cnn4-c4ccc(F)cc4)C[C@]3(CNCCO)C2)cc1 | < 10 nM | 10 to 100 nM | – | –
2 | Cc1ccc(S(=O)(=O)N2CCC3=Cc4c(cnn4-c4ccc(F)cc4)C[C@]3(CN(C)C)C2)cc1 | < 10 nM | 10 to 100 nM | – | –
3 | Cc1ccc(S(=O)(=O)N2CCC3=Cc4c(cnn4-c4ccc(F)cc4)C[C@]3(CN3CCCC3)C2)cc1 | < 10 nM | < 10 nM | – | –
4 | CN(C)C[C@]12Cc3cnn(-c4ccc(F)cc4)c3C=C1CCN(S(=O)(=O)c1ccc(F)cc1)C2 | < 10 nM | 10 to 100 nM | – | –
5 | O=S(=O)(c1ccc(F)cc1)N1CCC2=Cc3c(cnn3-c3ccc(F)cc3)C[C@]2(CN2CCCC2)C1 | < 10 nM | < 10 nM | – | –
6 | O=S(=O)(c1ccccc1)N1CCC2=Cc3c(cnn3-c3ccc(F)cc3)C[C@]2(CN2CCCC2)C1 | < 10 nM | < 10 nM | – | –
7 | CN(C)C[C@]12Cc3cnn(-c4ccc(F)cc4)c3C=C1CCN(S(=O)(=O)c1ccccc1)C2 | < 10 nM | 10 to 100 nM | – | –
8 | CN(CCO)C[C@]12Cc3cnn(-c4ccc(F)cc4)c3C=C1CCN(S(=O)(=O)c1ccc(C(C)(C)C)cc1)C2 | < 10 nM | < 10 nM | – | –
9 | CCCCS(=O)(=O)N1CCC2=Cc3c(cnn3-c3ccc(F)cc3)C[C@]2(CN2CCOCC2)C1 | 10 to 100 nM | > 100 nM | – | –
10 | N#Cc1ccc(S(=O)(=O)N2CCC3=Cc4c(cnn4-c4ccc(F)cc4)C[C@]3(CN3CCOCC3)C2)cc1 | < 10 nM | > 100 nM | – | –
11 | CCN(CC)C[C@]12Cc3cnn(-c4ccc(F)cc4)c3C=C1CCN(S(=O)(=O)c1ccccc1)C2 | < 10 nM | 10 to 100 nM | – | –
12 | CCN(CC)C[C@]12Cc3cnn(-c4ccc(F)cc4)c3C=C1CCN(S(=O)(=O)c1ccc(OC)cc1)C2 | < 10 nM | 10 to 100 nM | – | –
13 | O=S(=O)(c1ccccc1)N1CCC2=Cc3c(cnn3-c3ccc(F)cc3)C[C@]2(CN2CCCCC2)C1 | – | – | < 10 nM | 10 to 100 nM
14 | COc1ccc(S(=O)(=O)N2CCC3=Cc4c(cnn4-c4ccc(F)cc4)C[C@]3(CN3CCCCC3)C2)cc1 | 10 to 100 nM | 10 to 100 nM | – | –
15 | CCCCn1ncc2c1C=C1CCN(S(=O)(=O)c3ccc(C)cc3)C[C@@]1(CN1CCCCC1)C2 | 10 to 100 nM | – | – | –
16 | CC(C)(C)c1ccc(S(=O)(=O)N2CCC3=Cc4c(cnn4CC(F)(F)F)C[C@]3(CN3CCCC3)C2)cc1 | 10 to 100 nM | > 100 nM | – | –
17 | CCCCn1ncc2c1C=C1CCN(S(=O)(=O)c3ccc(C(C)(C)C)cc3)C[C@@]1(CN(C)C)C2 | 10 to 100 nM | > 100 nM | – | –
18 | CCCCn1ncc2c1C=C1CCN(S(=O)(=O)c3ccc(C(C)(C)C)cc3)C[C@@]1(CN1CCCCC1)C2 | < 10 nM | 10 to 100 nM | – | –
19 | O=S(=O)(c1ccccn1)N1CCC2=Cc3c(cnn3-c3ccc(F)cc3)C[C@]2(CN2CCOCC2)C1 | < 10 nM | – | – | –
20 | CC(C)(C)c1ccc(S(=O)(=O)N2CCC3=Cc4c(cnn4-c4ccc(F)cc4)CC3(Cc3ccc(F)cc3)C2)cc1 (stereo not drawn) | – | – | < 10 nM | 10 to 100 nM
21 | Fc1ccc(CC23Cc4cnn(-c5ccc(F)cc5)c4C=C2CCN(Cc2cccnc2)C3)cc1 (stereo not drawn) | – | – | 10 to 100 nM | > 100 nM
22 | O=S(=O)(N1CCOCC1)N1CCC2=Cc3c(cnn3-c3ccc(F)cc3)CC2(Cc2ccc(F)cc2)C1 (stereo not drawn) | – | – | 10 to 100 nM | > 100 nM
23 | CC(C)(C)c1ccc(S(=O)(=O)N2CCC3=Cc4c(cnn4-c4ccc(C(F)(F)F)cc4)CC3(Cc3ccccc3)C2)cc1 (stereo not drawn) [drawing 238] | 10 to 100 nM | – | – | –
24 | CC(C)(C)c1ccc(S(=O)(=O)N2CCC3=Cc4c(cnn4-c4ccc(C(F)(F)F)cc4)CC3(Cc3ccccc3)C2)cc1 (stereo not drawn) [drawing 254] | 10 to 100 nM | – | – | –
25 | CC(C)(C)c1ccc(S(=O)(=O)N2CCC3=Cc4c(cnn4Cc4cccc(O)c4)CC3(Cc3ccccc3)C2)cc1 (stereo not drawn) [drawing 257] | > 100 nM | – | – | –
